Source: PubChem BioAssay (NCI)
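48-hour exposure; five concentrations; linearly interpolated endpoints. Here, GI50 denotes the concentration required for 50% inhibition of growth. TGI: total growth inhibition.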

Columns and labels:
Assay in all cases: NCI anticancer screen, dose series, 48 h
A549 NSCLC = test system: A549 NSCLC
IGROV1 ovarian = test system: IGROV1 ovarian
M14 melanoma = test system: M14 melanoma
NCI-H23 lung = test system: NCI-H23 lung
NCI/ADR-RES ovarian = test system: NCI/ADR-RES ovarian
OVCAR-8 ovarian = test system: OVCAR-8 ovarian
SF-295 CNS = test system: SF-295 CNS
SW-620 colon = test system: SW-620 colon
UACC-257 melanoma = test system: UACC-257 melanoma
UACC-62 melanoma = test system: UACC-62 melanoma

Row | SMILES | TGI (A549 NSCLC) [µM] | TGI (IGROV1 ovarian) [µM] | TGI (M14 melanoma) [µM] | TGI (NCI-H23 lung) [µM] | TGI (NCI/ADR-RES ovarian) [µM] | TGI (OVCAR-8 ovarian) [µM] | TGI (SF-295 CNS) [µM] | TGI (SW-620 colon) [µM] | TGI (UACC-257 melanoma) [µM] | TGI (UACC-62 melanoma) [µM] | GI50 (A549 NSCLC) [µM] | GI50 (IGROV1 ovarian) [µM] | GI50 (M14 melanoma) [µM] | GI50 (NCI-H23 lung) [µM] | GI50 (OVCAR-8 ovarian) [µM] | GI50 (SF-295 CNS) [µM] | GI50 (SW-620 colon) [µM] | GI50 (UACC-257 melanoma) [µM] | GI50 (UACC-62 melanoma) [µM] | GI50 (NCI/ADR-RES ovarian) [µM]
1 | O=C(O)c1cc2ccccc2c(Cc2c(O)c(C(=O)O)cc3ccccc23)c1O | > 100 | > 100 | > 100 | > 100 | > 100 | > 100 | > 100 | > 100 | > 100 | > 100 |  |  |  |  |  |  |  |  |  | 
2 | O=C(Nc1ccccc1)c1cc2ccccc2c(N=Nc2cccc([N+](=O)[O-])c2)c1O | > 100 | > 100 | > 100 | > 100 | > 100 | > 100 | > 100 | > 100 | > 100 | > 100 |  |  |  |  |  |  |  |  |  | 
3 | COc1cccc(N/C(C)=C2/CCOC2=O)c1 | > 10 | > 10 | > 10 | > 10 | > 10 | > 10 | > 10 | > 10 |  | > 10 |  |  |  |  |  |  |  |  |  | 
4 | C=C1CC[C@@]2(C)[C@@H]([C@@H]1C)[C@H]1CC[C@@H]3[C@@]4(C)CC[C@H](O)C(C)(C)[C@@H]4CC[C@@]3(C)[C@]1(C)C[C@@H]2O | 4.65 | 3.77 | 32.7 | 5.64 | 14.2 |  | 12.2 | > 100 | 31.3 | 28.2 |  |  |  |  |  |  |  |  |  | 
5 | O=C([CH-]C(=O)c1ccccc1)c1ccccc1.[C-]#[O+].[C-]#[O+].[Ir] | > 100 | > 100 | > 100 | > 100 |  | > 100 | > 100 | > 100 | > 100 | > 100 | 82.9 | 88.3 | 54.3 | 52.8 | 45.4 | 42.9 | 59.4 | > 100 | 42.1 | 
6 | CC1(CO)C(O)CCC2(C)C1CCC1CC3CC12CCC3(O)CO (centres undefined) | > 100 | > 100 |  | > 100 | > 100 | > 100 | > 100 | > 100 | > 100 | > 100 |  |  |  |  |  |  |  |  |  | 
7 | COc1ccc(CN(CCN(C)C)c2ccccn2)cc1 (tested in a mixture with another compound) |  | > 100 | > 100 | > 100 |  | > 100 | > 100 | > 100 | > 100 |  |  |  |  |  |  |  |  |  |  | 
8 | Cc1cc(N(CCC#N)S(=O)(=O)c2ccccc2)ccc1C=Nc1cccc(C(=O)O)c1 | > 100 | > 100 | > 100 | > 100 |  | > 100 | > 100 | > 100 | > 100 | > 100 |  |  |  |  |  |  |  |  |  | 
9 | C1=N[C@]23C(=N[C@H](N=C2NCc2ccco2)[C@]24N=CNC2=N[C@H]3N=C4NCc2ccco2)N1 | > 100 | > 100 | > 100 | > 100 | > 100 | > 100 | > 100 | > 100 | > 100 | > 100 | > 100 | > 100 | > 100 | > 100 | > 100 | > 100 | > 100 | > 100 | > 100 | > 100
10 | O=C(NN1C(=O)C(Cl)C1c1cccc(O)c1)c1ccccc1O (centres undefined) | > 100 | > 100 | > 100 | > 100 |  | > 100 | > 100 |  | > 100 | > 100 |  |  |  |  |  |  |  |  |  | 
